Measured values published in patent US20250213516A1, “Prophylactic Methods For Treating ALS” (BioJiva LLC, priority 2022, published 2025).
Entries after “also recorded” stand apart in the source; their conditions may differ.

How the values were obtained:
[1] = system: patients in the incipient stage of ALS; assay: Clinical study, ALSFRS-R scoring of patients in the incipient stage of ALS; assay type: in vivo, human; conditions: for patients showing a better rate of decline (cut-off −11 change from baseline in ALSFRS-R): incipient stage, scored at 48 weeks
Description: This rating scale evaluated 12 different components on a 0 (worse) to 4 (best) scale where the components are speech, salivation, swallowing, handwriting, […], food handling, dressing and hygiene, turning in bed, […], climbing stairs, dyspnea, orthopnea, and respiratory insufficiency. As used herein, patients diagnosed with ALS are first evaluated to determine their natural history which measures the extent of loss of muscular functional due to the disease prior to initiation of therapy.
In this example, 41 patients diagnosed with ALS were tested to ascertain their natural history. Of these 41 patients, 23 scored above 38 points in the ALSFRS-R scoring test and were assigned as having incipient ALS. […] Each cohort received three 1 gram pills t.i.d. (“.three times a day”) at breakfast, lunch and dinner for a total of 9 pills.
After 24 weeks, each patient in each cohort were retested using the ALSFRS-R scoring test. The scores were then averaged for each cohort and the results are found in FIG. 1.
Each cohort received three 1 gram pills t.i.d. (“.three times a day”) at breakfast, lunch and dinner for a total of 9 pills.
After 48 weeks, each patient in each cohort were retested using the ALSFRS-R scoring test. The scores were then averaged.

[2] = system: patients in the accelerated stage of ALS; assay: Clinical study, ALSFRS-R scoring of patients in the accelerated stage of ALS; assay type: in vivo, human; conditions: 9 g/day ethyl ester vs placebo, 24 weeks, FIG. 2
Description: As used herein, the term “accelerated stage of ALS” refers to patients whose diseases progression has evidenced a more substantial loss of muscular functionality. For the purposes of this application, such is identified as having a natural history score of 37 or less.
In this example, the same 41 patients diagnosed with ALS used in Comparative Example 1 were used. […] Each cohort received three 1 gram pills t.i.d. at breakfast, lunch and dinner for a total of 9 pills.
After 24 weeks, each patient in each cohort were retested using the ALSFRS-R scoring test. The scores were then averaged for each cohort and the results are found in FIG. 2.

[3] = system: inflammation model; assay: Inflammation model
[4] = average diet, about 14 grams linoleic acid per day; cited from earlier work

[2H]C([2H])(/C=C\CCCCC)/C=C\CCCCCCCC(=O)OCC
change in ALSFRS-R scores (loss of functionality), cohort average ([1]; incipient stage ALS, about 9 g/day ethyl ester (8.64 g acid) vs placebo, 24 weeks, FIG. 1): do not evidence a significant change; also recorded: minimal loss of functionality | loss of muscular functionality (ALSFRS-R, cohort average) [2]: substantially less loss of muscular functionality

[2H]C([2H])(/C=C\CCCCC)/C=C\C([2H])([2H])/C=C\C([2H])([2H])/C=C\CCCC(=O)O [7,7,10,10,13,13-D6-arachidonic acid]
activity relative to 13,13-D2-arachidonic acid [3]: a little more than twice as active

[2H]C([2H])(/C=C\CCCCC)/C=C\CCCCCCCC(=O)O [11,11-D2-linoleic acid]
patients showing a better rate of decline (cut-off −11 change from baseline in ALSFRS-R) ([1]; placebo for 24 weeks, then 8.64 g/day for 24 weeks): 40% | patients showing a better rate of decline (cut-off −11 change from baseline in ALSFRS-R) ([1]; treated with 8.64 g/day for 48 weeks): 70%

CCCCC/C=C\C/C=C\CCCCCCCC(=O)O [linoleic acid]
portion of linoleic acid consumed hepatically converted to arachidonic acid [4]: about 10%
